Data on two compounds can be found in US6692927B2, “Bax degradation involvement in tumor survival and progression” (University of South Florida, priority 2000, dated 2004).

Where a SMILES comes first, the peptide text is derived from it. [ ]: non-standard residue; d: D form. The star is where a group is joined. Nva = CCC[C@H](N)C(=O)O; Cbz = O=C(OCc1ccccc1)*

One experiment concerns Bax degradation activity. Put plainly: cell-free Bax degradation assay, inhibitor added to MCF-7 cell extract. The format is biochemical, human. The settings on record: 10-minute preincubation of MCF-7 cell extract with inhibitor (100 mM per FIG. 9C legend), 37° C., 4 h. On the procedure:
FIGS. 9A-9F show Bax degradation depends on ubiquitination, proteasome and ATP. (FIG. 9A) Jurkat cells (0 h) were treated with either 50 μM LLnV or 10 μM lactacystin, followed by preparation of Bax immunoprecipitates (with clone 6A7), which were immunoblotted with an ubiquitin antibody. Positions of putative ubiquitinated Bax proteins (p47, p55) are indicated at left. The nature of the ˜30 kDa and ˜84 kDa remains unclear. (FIG. 9B) The [^35S]-labeled Bax (upper) or Bcl-2 (lower) protein (1 μl) were incubated at 37° C. for 2 h with either buffer Z only (lane 1) or […] protein extract of MCF-7 cells grown exponentially (lane 2) or pretreated for 8 h with […] LLnV (lane 3). (FIG. 9C) The [^35S]-labeled Bax protein (1 μl) was incubated with either buffer Z only (lane 1) or 100 μg MCF-7 cell lysate at 37° C. for 4 h, in the presence of an indicated inhibitor (100 mM; lanes 3-8) or an equal volume of DMSO (lane 2) in buffer Z. A weak band of ˜16 kDa (indicated by an arrow) is probably an intermediate product of proteasome-mediated Bax degradation. (FIG. 9D) The proteasome in MCF-7 whole cell lysate (W lys, lane 1) was precipitated by using either ultraspin (ULS) or a proteasome subunit a6 antibody (IP). Both supernatant (lanes 2, 4) and pellet (lanes 3, 5) fractions were examined by Western blot assay using antibody to the proteasome a6 subunit (MW 33 kDa). (FIG. 9E) Bax degradation assay was performed as in FIG. 9B, with addition of buffer Z (lane 1) or 100 μg protein from MCF-7 whole cell lysate (lane 2), ultraspun supernatant (lane 3) or plus the pellet (lane 4), immunodepleted supernatant (lane 5) or plus a purified 20S proteasome ([…]; lane 6), or the purified proteasome alone (2 μg; lane 7). (FIG. 9F) Bax degradation assay was performed as in FIG. 9B, in the absence (lane 3) or presence of 10 mM ATP (lane 2) or 10 mM ATP-y-S (lane 4).
In vitro Bax Degradation Assay: Human Bax-a cDNA subcloned into pcDNA3 was a gift from Dr. Hong-gang Wang. Human full length of bcl-2-a cDNA was cloned from Jurkat T cells and subcloned into pcDNA3.1(−) as described+. Both bax and bcl-2 plasmids were used for coupled in vitro transcription/translation (Promega; Madison, Wis.) in the presence of [^35S]methionine (Amersham Pharmacia Biotech; Piscataway, N.J.). Protein extracts were prepared from either MCF-7 cells or prostate tumor tissues in buffer Y (50 mM Tris-HCl, pH 7.4, 250 mM NaCl, 1% Triton X-100, 0.1% SDS, 1 mM EDTA), and used for Bax (or Bcl-2) degradation assay. Briefly, 1 microl of [^35S]-labeled Bax (or Bcl-2) protein was incubated at 37° C. for 2-4 hours with 100-200 microg protein extract in buffer Z (50 mM Tris-HCl, pH 7.4, 5 mM MgCl2, 3 mM DTT, 10 mM ATP, 10 mM phosphocreatine, 10 microg/ml creatine phosphokinase, 10 microg/ml aprotinin, 10 microg/ml leupeptin, 10% glycerol and 2 microg/ml ubiquitin). After incubation, the samples were subjected to gel electrophoresis and autoradiography. Under the cell-free assay conditions, the calpain-mediated Bax cleavage activity was blocked by omission of calcium and addition of the protease inhibitor leupeptin (Wood et al, 1998). To deplete the proteasome, MCF-7 cell lysates were either immunoprecipitated with the 20S proteasome subunit a6 antibody or ultracentrifugated at 100,000×g for 6 hours. The proteasome-enriched pellet fraction was resuspended in buffer Y.
To further study the proteasome activity that degrades Bax protein, a cell-free Bax degradation assay was developed by using an in vitro-translated, [^35S]-labeled Bax protein as substrate (FIG. 9B, upper, lane 1). The Bax degradation activity is present in protein extracts prepared from exponentially growing MCF-7 (FIG. 9), K562, VA-13, WI-38, Jurkat T or HL-60 cells. The labeled Bax was almost completely degraded by a MCF-7 cell extract after 2 to 4 hours incubation at 37° C. (FIG. 9B, upper, and FIG. 9C, lanes 2 vs. 1). […]

The test system of experiment [1] is normal human breast cells MCF-10A. As to the kind of experiment: cellular detachment of normal breast cells. As to conditions: 48 hours or even 72 hours. The experiment is classed as cell-based. On the procedure: Proteasome inhibitors selectively induce apoptosis in human breast cancer, but not normal, cells. […] Cells of both human breast cancer lines became detached in a lactacystin-concentration-dependent manner (FIG. 3). No detachment was induced in the normal human breast cells MCF-10A after treatment with lactacystin for 48 hours (FIG. 3) or even 72 hours. Proteasome inhibition-induced detachment of breast cancer cells is due to apoptosis (An et al., in press).

As for `CCC[C@@H](C=O)NC(=O)[C@H](CC(C)C)NC(=O)[C@H](CC(C)C)NC(=O)OCc1ccccc1` [LLnV] (Cbz-Leu-Leu-[Nva]-aldehyde), in the experiment with Bax degradation activity, the Bax degradation process/activity result was “blocked”.
Consider `CC(=O)N[C@@H](CSC(=O)[C@]1([C@@H](O)C(C)C)NC(=O)[C@H](C)[C@@H]1O)C(=O)O` [lactacystin], for which the Bax degradation process/activity entry with Bax degradation activity is reported as “not”. In addition, the cellular detachment entry in experiment [1] is on record as “No detachment”.
